The results in this text go back to the SangsterLogP compilation.

Data set [1] can be described thus: method code SF-AS, from DOI: 10.1021/jm00266a011, PMID: 4583365.
Data set [2] is described as follows: method code SF, from DOI: 10.1021/jm00266a011, PMID: 4583365.

SMILES strings stand for the structures.

Broadly, the logP is a log measure of how a compound divides between an organic and an aqueous phase. Read a high logP as a more lipophilic compound. In data set [1], `N#Cc1ccc([C@@H](O)[C@@H](CO)NC(=O)C(Cl)Cl)cc1` showed a logP of 1.29.
Turning to `O=C(NC(CO)C(O)c1ccc([N+](=O)[O-])cc1)C(Cl)(Cl)Cl` (stereo not given), in data set [1], the lipophilicity (logP) was 1.97.
The same measure, in the same setting: in the case of `O=C(N[C@H](CO)[C@H](O)c1ccc(Br)cc1)C(Cl)Cl` it was 1.87; in that of `CC(C)C(=O)N[C@H](CO)[C@H](O)c1ccc([N+](=O)[O-])cc1`, 0.88.
For the molecule `O=C(Cc1ccccc1)NC(CO)C(O)c1ccc([N+](=O)[O-])cc1` (stereo not given), the logP in data set [1] is 1.52.
With `O=C(N[C@H](CO)[C@H](O)c1ccc([N+](=O)[O-])cc1)C(Br)Br`, the logP in data set [1] was 1.36.
Same read-out and setting: the same measure for `O=C(NC(CO)C(O)c1ccccc1)C(Cl)Cl` (stereo not given): 0.94; for `O=C(CCl)NC(CO)C(O)c1ccc([N+](=O)[O-])cc1` (stereo not given): 0.59.
Take `O=C(N[C@H](CO)[C@H](O)c1ccc([N+](=O)[O-])cc1)C(Br)(Br)Br`: the logP in data set [1] came out at 2.17.
For the molecule `N#CCC(=O)NC(CO)C(O)c1ccc([N+](=O)[O-])cc1` (stereo not given), the logP in data set [2] is -0.22.
A word on the logD: it is lipophilicity at a set pH, counting ionised and neutral species. High values mean a more lipophilic compound, low ones a more hydrophilic compound. Turning to `CC(C)(C)C(=O)N[C@H](CO)[C@H](O)c1ccc([N+](=O)[O-])cc1`, the logD in data set [1] (pH 7.4) is 1.33.
For the molecule `O=C(CF)NC(CO)C(O)c1ccc([N+](=O)[O-])cc1` (stereo not given), the logP in data set [1] stood at 0.15.
Take `CN(Cc1ccccc1)/N=N/c1nc[nH]c1C(N)=O`: the lipophilicity (logP) in data set [2] was 1.54.
As to `O=C(CI)N[C@H](CO)[C@H](O)c1ccc([N+](=O)[O-])cc1`, the logP in data set [1] is 1.03.
On the same count and under the same terms, the same measure for `CCCCCCCCN(C)/N=N/c1nc[nH]c1C(N)=O`: 3.22.
In turn, `O=C(N[C@H](CO)[C@H](O)c1ccc(-c2ccccc2)cc1)C(Cl)Cl` returned a logP in data set [1] of 2.86.
As to `CCC(CC)C(=O)N[C@H](CO)[C@H](O)c1ccc([N+](=O)[O-])cc1`, the log partition coefficient (logP) in data set [1] was found to be 1.71.
The same measure, in the same setting: in the case of `O=C(NC(CO)C(O)c1ccc([N+](=O)[O-])cc1)C(F)(F)F` (stereo not given) it was 1.07; in that of `O=C(N[C@H](CO)[C@H](O)c1ccc([N+](=O)[O-])cc1)C(F)F`, 0.42.
For `O=C(N[C@@H](CO)[C@@H](O)c1ccc(I)cc1)C(Cl)Cl` (relative stereo), the logP in data set [1] was 2.22.
Same read-out and setting: the same measure for `O=C(NC(CO)C(O)c1ccc([N+](=O)[O-])cc1)c1ccccc1` (stereo not given): 1.63.
`CCCC(=O)NC(CO)C(O)c1ccc([N+](=O)[O-])cc1` (stereo not given) gave a logP in data set [1] of 0.87.
The same measure, in the same setting: in the case of `CC(Cl)C(=O)NC(CO)C(O)c1ccc([N+](=O)[O-])cc1` (stereo not given) it was 0.98; in that of `CC(=O)NC(CO)C(O)c1ccc([N+](=O)[O-])cc1` (stereo not given), -0.03; in that of `N#CC(C(=O)NC(CO)C(O)c1ccc([N+](=O)[O-])cc1)c1ccccc1` (stereo not given), 1.47.
